Results published in ChEMBL document CHEMBL2034982, “Synthesis of new 2-galactosylthiazolidine-4-carboxylic acid amides. Antitumor evaluation against melanoma and breast cancer cells” (Eur J Med Chem, 2012).
The source made the active and inactive calls. No cut-off for these calls is given here.

Legend:
MCF7 [1] = assay: Cytotoxicity against human MCF7 cells after 48 hrs by MTT assay; assay type: functional, cell-based; conditions: for IC50: MCF7, 48 h
HCC1806 = assay: Cytotoxicity against human HCC1806 cells after 48 hrs by MTT assay; assay type: functional, cell-based; conditions: HCC1806, 48 h
A-375 [2] = assay: Cytotoxicity against human A375 cells assessed as increase in necrotic cells at 17 to 30 uM after 48 hrs by annexin V/propidium iodide staining based FACS flow cytometry; assay type: functional, cell-based
A-375 [3] = assay: Induction of apoptosis in human A375 cells assessed as increase in ratio of Bax/Bcl2 at 17 uM after 48 hrs by fluorescence assay relative to control; assay type: functional
A-375 [4] = assay: Induction of apoptosis in human A375 cells assessed as increase in ratio of Bax/Bcl2 at 30 uM after 48 hrs by fluorescence assay relative to control; assay type: functional, cell-based
A-375 [5] = assay: Cell cycle arrest in human A375 cells assessed as accumulation at sub G1 phase at 30 uM after 48 hrs using propidium iodide staining by FACS flow cytometry; assay type: functional
A-375 [6] = assay: Cell cycle arrest in human A375 cells assessed as accumulation at sub G1 phase at 17 uM after 48 hrs using propidium iodide staining by FACS flow cytometry; assay type: functional
A-375 [7] = assay: Cell cycle arrest in human A375 cells assessed as accumulation at G1 phase at 17 uM after 48 hrs using propidium iodide staining by FACS flow cytometry (reference value: 66.4 +/- 4.1%); assay type: functional
A-375 [8] = assay: Cell cycle arrest in human A375 cells assessed as accumulation at G1 phase at 30 uM after 48 hrs using propidium iodide staining by FACS flow cytometry (reference value: 66.4 +/- 4.1%); assay type: functional
A-375 [9] = assay: Cell cycle arrest in human A375 cells assessed as accumulation at S phase at 17 uM after 48 hrs using propidium iodide staining by FACS flow cytometry (reference value: 23.0 +/- 3.3%); assay type: functional
A-375 [10] = assay: Cell cycle arrest in human A375 cells assessed as accumulation at S phase at 30 uM after 48 hrs using propidium iodide staining by FACS flow cytometry (reference value: 23.0 +/- 3.3%); assay type: functional
A-375 [11] = assay: Cell cycle arrest in human A375 cells assessed as accumulation at G2 phase at 17 uM after 48 hrs using propidium iodide staining by FACS flow cytometry (reference value: 10.6 +/- 1.2%); assay type: functional
A-375 [12] = assay: Cell cycle arrest in human A375 cells assessed as accumulation at G2 phase at 30 uM after 48 hrs using propidium iodide staining by FACS flow cytometry (reference value: 10.6 +/- 1.2%); assay type: functional
A-375 [13] = assay: Induction of apoptosis in human A375 cells after 48 hrs using propidium iodide staining by FACS flow cytometry; assay type: functional, cell-based
A-375 [14] = assay: Cytotoxicity against human A375 cells after 48 hrs by MTT assay; assay type: functional, cell-based; conditions: for IC50: A-375, 48 h
[15] = Cytotoxicity against human HFF1 cells after 48 hrs by MTT assay; assay type: cell-based; conditions: HFF-1, 48 h
A-375 [16] = assay: Selectivity index, ratio of IC50 for human HFF1 cells to IC50 for human A375 cells; assay type: functional
MCF7 [17] = assay: Selectivity index, ratio of IC50 for human HFF1 cells to IC50 for human MCF7 cells; assay type: functional
A-375 [18] = assay: Cytotoxicity against human A375 cells after 48 hrs by annexin V/propidium iodide staining based FACS flow cytometry; assay type: functional, cell-based
A-375 [19] = assay: Cytotoxicity against human A375 cells assessed as decrease in viable cells at 17 to 30 uM after 48 hrs by annexin V/propidium iodide staining based FACS flow cytometry; assay type: functional, cell-based
A-375 [20] = assay: Cytotoxicity against human A375 cells assessed as increase in apoptotic cells at 17 to 30 uM after 48 hrs by annexin V/propidium iodide staining based FACS flow cytometry; assay type: functional, cell-based
A-375 [21] = assay: Cytotoxicity against human A375 cells assessed as increase in late apoptotic cells at 17 to 30 uM after 48 hrs by annexin V/propidium iodide staining based FACS flow cytometry; assay type: functional, cell-based

## CC(=O)O[C@@]12CO[C@@H]1C[C@H](O)[C@@]1(C)C(=O)[C@H](O)C3=C(C)[C@@H](OC(=O)[C@H](O)[C@@H](NC(=O)OC(C)(C)C)c4ccccc4)C[C@@](O)([C@@H](OC(=O)c4ccccc4)[C@H]21)C3(C)C [DOCETAXEL]
MCF7 [1]
  IC50: 11.9 µM
HCC1806
  IC50: 8.4 µM

## CCCCCCCCCCCCCCCCNC(=O)C1CSC([C@H](O)[C@@H](OC(C)=O)[C@@H](OC(C)=O)[C@@H](COC(C)=O)OC(C)=O)N1C(C)=O (mixture of isomers)
A-375 [2]
  Activity: Active
A-375 [3]
  Ratio: 2
A-375 [4]
  Activity: Active
A-375 [5]
  Activity: 16.6%
A-375 [6]
  Activity: 5.6%
A-375 [7]
  Activity: 60.6%
A-375 [8]
  Activity: 43.6%
A-375 [9]
  Activity: 23.6%
A-375 [10]
  Activity: 46%
A-375 [11]
  Activity: 16%
A-375 [12]
  Activity: 10.2%
A-375 [13]
  Activity: Dose-dependent effect
A-375 [14]
  Activity: Dose-dependent effect
  IC50: 17 µM
MCF7 [1]
  Activity: Dose-dependent effect
  IC50: 5.8 µM
[15]
  IC50: 29.8 µM
A-375 [16]
  Ratio IC50: 1.8
MCF7 [17]
  Ratio IC50: 5.8
HCC1806
  IC50: 12.6 µM
A-375 [18]
  Activity: Dose-dependent effect
A-375 [19]
  Activity: Active
A-375 [20]
  Activity: Active
A-375 [21]
  Activity: Active

## CN(C)/N=N/c1[nH]cnc1C(N)=O [DACARBAZINE]
A-375 [14]
  IC50: > 500 µM

## CCCCCCCCCCCCCCNC(=O)C1CSC([C@H](O)[C@@H](OC(C)=O)[C@@H](OC(C)=O)[C@@H](COC(C)=O)OC(C)=O)N1C(C)=O (mixture of isomers)
A-375 [14]
  Activity: Dose-dependent effect
  IC50: 19.6 µM
MCF7 [1]
  Activity: Dose-dependent effect
  IC50: 8.4 µM
[15]
  IC50: 19.6 µM
A-375 [16]
  Ratio IC50: 1
MCF7 [17]
  Ratio IC50: 2.2

## CCCCCCCCCCCCNC(=O)C1CSC([C@H](O)[C@@H](OC(C)=O)[C@@H](OC(C)=O)[C@@H](COC(C)=O)OC(C)=O)N1C(C)=O (mixture of isomers)
A-375 [14]
  Activity: Dose-dependent effect
  IC50: 23.1 µM
MCF7 [1]
  Activity: Dose-dependent effect
  IC50: 7.5 µM
[15]
  IC50: 2.9 µM
A-375 [16]
  Ratio IC50: 0.22
MCF7 [17]
  Ratio IC50: 0.91

## CCCCCCCCCCCCCCCCCCNC(=O)C1CSC([C@H](O)[C@@H](OC(C)=O)[C@@H](OC(C)=O)[C@@H](COC(C)=O)OC(C)=O)N1C(C)=O (mixture of isomers)
A-375 [14]
  Activity: Dose-dependent effect
  IC50: 20.5 µM
MCF7 [1]
  Activity: Dose-dependent effect
  IC50: 7.7 µM
[15]
  IC50: 27.2 µM
A-375 [16]
  Ratio IC50: 1.1
MCF7 [17]
  Ratio IC50: 3
